# Biological target: T1, Jak1 (Homo sapiens, UniProt P23458)
# T1 construct: endogenous in cells; host or cells: TF1 cells
# Assay: Jak1 (PSTAT3 TF1) alpha screen assay: inhibition of IL-6 induced phosphorylation of STAT3 in TF1 cells
# Assay type: cell-based
# Settings: calculated from tabulated EC50 data (Jak1 / Tyk2)
# Description: 2. JAK1 (PSTAT3 TF1) ALPHA SCREEN ASSAY
# IL-6 is known to transduce its signal through IL-6 receptor via Jak1. Activity against Jak1 was therefore measured by determining inhibition of IL-6 induced phosphorylation of STAT3 in TF1 cells.
# Cell Type: TF1 Cells; Culture Medium: RPMI 1640 Medium, 2mM L-glutamine, 10% heat- inactivated fetal bovine serum (FBS), 10 mM hydroxyethyl piperazineethanesulfonic acid (HEPES), and 2 ng/mL recombinant human interleukin-6(IL-6); Assay Medium: Dulbecco's Modified Eagle Medium (DMEM) medium with 2 mM L-glutamine, 10 mM HEPES, 100 U/mL penicillin/streptomycin, 1.5 g/L sodium bicarbonate, 4.5 g/L glucose, 1 mM sodium pyruvate, 10% heat-inactivated FBS; Compound Preparation: Compounds are dissolved in 100% dimethyl sulfoxide (DMSO).
# Day One—Starve Cells: 4 Flasks for one 384 plate (spin down @1000 rpm for 10 minutes and add RPMI 1640 Medium, 2 mM L-glutamine, 10% FBS, 10 mM HEPES with no IL-6 -incubate overnight).
# Day Two—Compound Dilutions:
# i. Manual 8-point 1:5 dilution curve: 5 mM top concentration dispensed in row A of a
# Corning 96-well polypropylene plate, columns 2-12. DMSO dispensed in position A01 for low and high controls. Compounds were serially diluted 1:5 by adding 10 μL stock to […] DMSO down the plate.
# ii. Media dilution of compounds: Serially diluted compounds were further diluted 1:12.5 in assay medium by adding 4 μL compound to 46 μL assay medium in a Corning 96-well polypropylene plate.
# 384 Alpha Screen Plate Set up: Transfer 2.5 μL/well of compound solution from assay media dilution plate. Replicates were vertical, one column of the 96-well dilution plate goes into one column on the 384-well plate twice. Plated 1×10^5 starved cells/well in 5 μL. Washed cells in 10 mL DMEM medium after spinning down. Brought cell pellet up in assay media. Counted live cells. Multiplied by dilution factor and 10,000 (constant) to get the concentration of viable cells. Multiplied by volume of assay media used to bring up cells to get the total number of live cells. Divided by 20,000,000 cells/mL to get the volume needed. Cells were plated at 5 μL/well in gray Alpha Screen 384-well plate. Spinned the plate to bring the contents to the bottom of the wells at 300 rpm for 60 seconds. Top final compound concentration: 25 μM. Sealed with adhesive and tapped gently. Incubated plate at 37° C. for 30 minutes. c. IL-6 Stimulation (pSTAT3)
# Once cells were in incubator, immediately prepared working stock of IL-6 (100 ng/mL final concentration). IL-6 stock=10 μg/mL of IL-6 in phosphate buffered saline with 0.1% bovine serum albumin. Diluted 1:25 by adding 60 μL stock IL-6 to 1440 μL assay media. Added 2.5 μL IL-6 to each well. Spinned plate at 300 rpm briefly; tapped the plate gently before covering with an adhesive seal. Incubated plate at 37° C. for 30 minutes.
# Added 2.5 μL of 5X Lysis buffer to each well. Incubated at room temperature on orbital shaker for 10 minutes.
# e. Protein (A) Acceptor Beads Preparation:
# Phosphorylated Signal Transducer and Activator of Transcription 3 (pSTAT3) was quantified using the PerkinElmer SureFire pSTAT3 (Tyrosine 705) Assay. Calculated total volume needed (wells×[…]×25%). Divided total volume by 5 to get volume of activation buffer. Subtracted volume of activation buffer from total volume and divide by 40 to get volume of acceptor beads (add last). Total volume−acceptor bead volume−activation buffer=volume of reaction buffer. Added 15 μL to each well and covered with foil. Shaked on orbital shaker for 2 hours at 500 rpm.
# f. Streptavidin Donor Beads Preparation:
# Calculated total volume needed (wells×[…]×25%). Divided total volume by 20 to get volume of donor beads (add last). Subtracted volume of donor beads from total volume to get volume of dilution buffer. Added 6 μL to each well and covered with foil. Shaked on orbital shaker overnight at 500 rpm.
# Read plate on a Perkin Elmer Envision. […]
# T1 sequence (P23458 whole entry): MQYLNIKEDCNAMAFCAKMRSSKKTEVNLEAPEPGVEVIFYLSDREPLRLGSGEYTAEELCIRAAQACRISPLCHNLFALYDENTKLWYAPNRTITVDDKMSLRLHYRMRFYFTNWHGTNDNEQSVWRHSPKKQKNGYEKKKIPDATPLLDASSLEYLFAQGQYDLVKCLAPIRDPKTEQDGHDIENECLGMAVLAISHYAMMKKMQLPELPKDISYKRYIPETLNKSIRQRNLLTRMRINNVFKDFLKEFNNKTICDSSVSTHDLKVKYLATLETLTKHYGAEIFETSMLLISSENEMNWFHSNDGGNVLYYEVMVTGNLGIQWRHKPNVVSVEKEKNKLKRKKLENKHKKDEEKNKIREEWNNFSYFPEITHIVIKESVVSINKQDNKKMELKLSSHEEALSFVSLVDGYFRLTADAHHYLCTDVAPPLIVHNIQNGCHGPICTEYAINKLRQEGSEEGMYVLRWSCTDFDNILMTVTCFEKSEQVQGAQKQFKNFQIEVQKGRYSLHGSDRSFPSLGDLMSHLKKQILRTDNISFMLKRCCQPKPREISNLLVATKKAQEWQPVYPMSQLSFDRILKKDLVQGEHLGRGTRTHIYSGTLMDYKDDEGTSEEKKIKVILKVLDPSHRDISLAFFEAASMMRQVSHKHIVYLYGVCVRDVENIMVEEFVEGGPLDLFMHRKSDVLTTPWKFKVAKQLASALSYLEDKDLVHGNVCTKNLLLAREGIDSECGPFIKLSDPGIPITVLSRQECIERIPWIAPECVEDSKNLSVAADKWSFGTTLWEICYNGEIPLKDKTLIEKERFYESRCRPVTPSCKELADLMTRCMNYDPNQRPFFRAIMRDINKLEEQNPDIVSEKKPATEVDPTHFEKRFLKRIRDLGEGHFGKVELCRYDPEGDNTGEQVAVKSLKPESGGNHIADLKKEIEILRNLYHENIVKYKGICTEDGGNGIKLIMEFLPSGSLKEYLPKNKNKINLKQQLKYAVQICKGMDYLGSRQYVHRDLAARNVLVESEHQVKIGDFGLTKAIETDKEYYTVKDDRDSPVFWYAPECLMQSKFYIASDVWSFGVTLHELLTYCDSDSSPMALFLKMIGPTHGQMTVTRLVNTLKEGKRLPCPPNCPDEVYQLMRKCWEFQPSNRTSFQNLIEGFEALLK
row,SMILES,Tyk2 selectivity over Jak1
1,"COc1cc(-c2cn(C3COC3)c3cnc(NC(C)=O)cc23)nc([C@]2(OC)CCOC2)c1 [Example 5, (R)-N-(3-(4-methoxy-6-(3-methoxytetrahydrofuran-3-yl)pyridin-2-yl)-1-(oxetan-3-yl)-1H-pyrrolo[2,3-c]pyridin-5-yl)acetamide]",>901-fold
2,"CO[C@@]1(c2cc(OC3COC3)cc(-c3cn(C)c4cnc(NC(C)=O)cc34)n2)CCOC1 [Example 8, (R)-N-(3-(6-(3-Methoxytetrahydrofuran-3-yl)-4-(oxetan-3-yloxy)pyridin-2-yl)-1-methyl-1H-pyrrolo[2,3-c]pyridin-5-yl)acetamide]",244-fold
3,"CO[C@@]1(c2cc(C(F)F)cc(-c3cn([C@@H]4CCOC4)c4cnc(NC(N)=O)cc34)n2)CCOC1 [Example 12b.2, 1-(3-(4-(difluoromethyl)-6-((R)-3-methoxytetrahydrofuran-3-yl)pyridin-2-yl)-1-((R)-tetrahydrofuran-3-yl)-1H-pyrrolo[2,3-c]pyridin-5-yl)urea]",2667-fold
4,"CO[C@@]1(c2cc(C(F)F)cc(-c3cn([C@H]4CCOC4)c4cnc(NC(N)=O)cc34)n2)CCOC1 [Example 12b.3, 1-(3-(4-(difluoromethyl)-6-((R)-3-methoxytetrahydrofuran-3-yl)pyridin-2-yl)-1-((S)-tetrahydrofuran-3-yl)-1H-pyrrolo[2,3-c]pyridin-5-yl)urea]",1214-fold
5,"Cn1cc(-c2cccc(C3(O)COC3)n2)c2cc(NC(N)=O)ncc21 [Example 14, 1-(3-(6-(3-hydroxyoxetan-3-yl)pyridin-2-yl)-1-methyl-1H-pyrrolo[2,3-c]pyridin-5-yl)urea]",20-fold
6,"CO[C@]1(c2cc(C)cc(-c3cn(C)c4cnc(NC(N)=O)cc34)n2)CCOC1 [Example 1b.3, (S)-1-(3-(6-(3-methoxytetrahydrofuran-3-yl)-4-methylpyridin-2-yl)-1-methyl-1H-pyrrolo[2,3-c]pyridin-5-yl)urea]",10-fold
7,"CO[C@@]1(c2cc(C#N)cc(-c3cn([C@@H]4CC4(F)F)c4cnc(NC(N)=O)cc34)n2)CCOC1 [Example 12a.3, 1-(3-(4-cyano-6-((R)-3-methoxytetrahydrofuran-3-yl)pyridin-2-yl)-1-((R)-2,2-difluorocyclopropyl)-1H-pyrrolo[2,3-c]pyridin-5-yl)urea]",>1515-fold
8,"CO[C@@]1(c2cc(C(F)F)cc(-c3cn(C4COC4)c4cnc(NC(N)=O)cc34)n2)CCOC1 [Example 12b.4, (R)-1-(3-(4-(difluoromethyl)-6-(3-methoxytetrahydrofuran-3-yl)pyridin-2-yl)-1-(oxetan-3-yl)-1H-pyrrolo[2,3-c]pyridin-5-yl)urea]",889-fold
9,"NC(=O)Nc1cc2c(-c3cccc(C4(O)COC4)n3)cn([C@@H]3CCOC3)c2cn1 [Example 15, (R)-1-(3-(6-(3-Hydroxyoxetan-3-yl)pyridin-2-yl)-1-(tetrahydrofuran-3-yl)-1H-pyrrolo[2,3-c]pyridin-5-yl)urea]",80-fold
10,"COc1cc(-c2cn(C)c3cnc(NC(C)=O)cc23)nc([C@]2(OC)CCOC2)c1 [Example 20, (R)-N-(3-(4-Methoxy-6-(3-methoxytetrahydrofuran-3-yl)pyridin-2-yl)-1-methyl-1H-pyrrolo[2,3-c]pyridin-5-yl)acetamide]",328-fold

# Further lines, results first:
row,Tyk2 selectivity over Jak1,SMILES
1,909-fold,"CO[C@@]1(c2cc(C(F)F)cc(-c3cn(C)c4cnc(NC(N)=O)cc34)n2)CCOC1 [Example 12.5, (R)-1-(3-(4-(difluoromethyl)-6-(3-methoxytetrahydrofuran-3-yl)pyridin-2-yl)-1-methyl-1H-pyrrolo[2,3-c]pyridin-5-yl)urea]"
2,188-fold,"CC[C@@]1(c2cccc(-c3cn(C)c4cnc(NC(C)=O)cc34)n2)CCOC1 [Example 2.3, (S)-N-(3-(6-(3-ethyltetrahydrofuran-3-yl)pyridin-2-yl)-1-methyl-1H-pyrrolo[2,3-c]pyridin-5-yl)acetamide]"
3,81-fold,"COc1cc(-c2cn(C)c3cnc(NC(N)=O)cc23)nc([C@@]2(OC)CCOC2)c1 [Example 12.7, (S)-1-(3-(4-methoxy-6-(3-methoxytetrahydrofuran-3-yl)pyridin-2-yl)-1-methyl-1H-pyrrolo[2,3-c]pyridin-5-yl)urea]"
4,50-fold,"CO[C@]1(c2cc(OCC3COC3)cc(-c3cn(C)c4cnc(NC(C)=O)cc34)n2)CCOC1 [Example 6.2, (S)-N-(3-(6-(3-methoxytetrahydrofuran-3-yl)-4-(oxetan-3-ylmethoxy)pyridin-2-yl)-1-methyl-1H-pyrrolo[2,3-c]pyridin-5-yl)acetamide]"
5,6400-fold,"CO[C@@]1(c2cc(C)cc(-c3cn([C@H]4C[C@@H](C#N)C4)c4cnc(NC(C)=O)cc34)n2)CCOC1 [Example 17.5, N-(1-((cis)-3-cyanocyclobutyl)-3-(6-((R)-3-methoxytetrahydrofuran-3-yl)-4-methylpyridin-2-yl)-1H-pyrrolo[2,3-c]pyridin-5-yl)acetamide]"
6,157-fold,"CO[C@@]1(c2cc(C)cc(-c3cn([C@H]4C[C@H](C#N)C4)c4cnc(NC(C)=O)cc34)n2)CCOC1 [Example 17.4, N-(1-((trans)-3-cyanocyclobutyl)-3-(6-((R)-3-methoxytetrahydrofuran-3-yl)-4-methylpyridin-2-yl)-1H-pyrrolo[2,3-c]pyridin-5-yl)acetamide]"
7,>641-fold,"COc1cc(-c2cn([C@@H]3CCOC3)c3cnc(NC(C)=O)cc23)nc([C@]2(OC)CCOC2)c1 [Example 5.2, N-(3-(4-methoxy-6-((R)-3-methoxytetrahydrofuran-3-yl)pyridin-2-yl)-1-((R)-tetrahydrofuran-3-yl)-1H-pyrrolo[2,3-c]pyridin-5-yl)acetamide]"
